Measurements reported in patent US20150366962A1 (priority 2014, published 2015).

Tested on: H5 (VN/04), H11 and H12 subtype HAs
Set-up: species or system mice
Conditions: mouse, in vivo

Structure (SMILES)	IgG subtype profile (IgG2a/IgG1) to H5 subtype HA	IgG titers reacting to H11 subtype versus unadjuvanted control	IgG titers reacting to H12 subtype versus unadjuvanted control	serum IgG reactivity to the H5 subtype HA (VN/04) versus no adjuvant
Cn1c2ccccc2c2nc(SCC(=O)NC3CCCCC3)n(-c3ccccc3)c(=O)c21 [Compound 1Z105]	induced primarily IgG1	–	–	–
CCCCCCCCC=CCCCCCCCC(=O)OCC(COP(=O)(O)OCCNC(=O)c1ccc(Cn2c(=O)[nH]c3c(N)nc(OCCOC)nc32)cc1)OC(=O)CCCCCCCC=CCCCCCCCC (centres unmarked) [Compound 1V270]	inducing IgG2a	significantly better than the unadjuvanted control	significantly better than the unadjuvanted control	significantly higher reactivity
